PubChem BioAssay (NCI)
Several values for one entry are separate records, joined by “and”; a condition that tells them apart may be missing. Identical values can stand only once.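 Five concentrations, 48 hours, 96-well plates. GI50 = concentration required for 50% inhibition of growth. At the TGI there is no net growth.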

How the values were obtained:
Assay in all cases: inhibition of tumour cell growth, NCI panel, 48 h
MDA-MB-435 = system: MDA-MB-435
HL-60(TB) leukemia = system: HL-60(TB) leukemia
HCT-116 colon = system: HCT-116 colon
SR leukemia = system: SR leukemia
CAKI-1 renal = system: CAKI-1 renal
MDA-MB-231 breast = system: MDA-MB-231 breast
NCI-H522 lung = system: NCI-H522 lung
MALME-3M melanoma = system: MALME-3M melanoma
SK-MEL-28 melanoma = system: SK-MEL-28 melanoma
HCC-2998 colon = system: HCC-2998 colon

SMILES | GI50 (MDA-MB-435) | TGI (MDA-MB-435) | GI50 (HL-60(TB) leukemia) | GI50 (HCT-116 colon) | TGI (HCT-116 colon) | GI50 (SR leukemia) | GI50 (CAKI-1 renal) | TGI (CAKI-1 renal) | GI50 (MDA-MB-231 breast) | TGI (MDA-MB-231 breast) | GI50 (NCI-H522 lung) | TGI (NCI-H522 lung) | GI50 (MALME-3M melanoma) | TGI (MALME-3M melanoma) | GI50 (SK-MEL-28 melanoma) | TGI (SK-MEL-28 melanoma) | GI50 (HCC-2998 colon) | TGI (HCC-2998 colon) | TGI (HL-60(TB) leukemia) | TGI (SR leukemia)
COc1ccc2c(c1)nnn1c3ncccc3c(N=O)c21 | 1.94 µM and 2.05 µM | 9.7 µM and 12.4 µM | 0.0433 µM and 0.359 µM | 0.06 µM | 0.91 µM | 0.00899 µM and 0.0247 µM | 0.0892 µM and 0.202 µM | 0.359 µM and 1.59 µM | 1.26 µM and 1.88 µM | 12.7 µM and 6.41 µM | 1.25 µM | 6.49 µM | 0.769 µM and 1.5 µM | 5.77 µM and 5.63 µM | 3.48 µM and 11.4 µM | 13.6 µM and 74.4 µM | 7.23 µM and 1.24 µM | 15.6 µM and 2.79 µM |  | 
C=C1/C(=C\C=C2/CCC[C@]3(C)[C@@H]([C@H](C)CCCC(C)(C)O)CC[C@@H]23)C[C@@H](OC(=O)CBr)C[C@@H]1O | 4.22 µM | 10.9 µM | 0.3 µM | 2.22 µM | 5.9 µM | 0.0902 µM | 3.19 µM | 15.8 µM | 1.39 µM | 5.4 µM | 0.255 µM | 0.83 µM | 0.184 µM | 0.674 µM | 4.95 µM | 10.9 µM | 13.6 µM | 27.5 µM | 1.09 µM | 1.5 µM
COc1cc2oc3cc(=O)cc4oc(-c5ccccc5)cc(c2c2c1CCC(c1ccccc1)O2)c43 (stereo not drawn) |  | 56 µM |  |  | > 100 µM |  |  | > 100 µM |  | 68.1 µM |  | > 100 µM |  | > 100 µM |  | > 100 µM |  | > 100 µM | 62.7 µM | > 100 µM
c1cc2n(n1)CCN2 |  | > 10000 µM |  |  | > 10000 µM |  |  | 4680 µM |  | > 10000 µM |  | > 7740 µM |  | 9920 µM |  | > 10000 µM |  | > 7040 µM | 5150 µM | > 9010 µM
CC1OC(OC2C[C@](O)(C(=O)CF)Cc3c(O)c4c(c(O)c32)C(=O)c2ccccc2C4=O)CC(N)C1O (stereo partly drawn) |  | 0.321 µM |  |  | 0.388 µM |  |  | 0.0763 µM |  | 0.283 µM |  | 0.104 µM |  | 0.191 µM |  | 1.91 µM |  | 0.488 µM | < 0.0291 µM | 0.0708 µM
Cc1cc(NCCN(C(C)C)C(C)C)nc(/N=C(\N)Nc2ccc(Cl)c(C(F)(F)F)c2)n1 | 0.196 µM | 0.389 µM | 0.38 µM | 0.275 µM | 2.38 µM | 0.155 µM | 0.427 µM | 1.02 µM | 0.292 µM | 1.04 µM | 0.206 µM | 0.47 µM | 0.183 µM | 0.403 µM | 0.176 µM | 0.32 µM | 0.214 µM | 0.469 µM | 0.952 µM | 0.425 µM
CNC(=O)c1cccc2cc(Oc3ccnc4cc(OCC5(N)CC5)c(OC)cc34)ccc12 | 3.09 µM | 12 µM | 8.26 µM | 5.2 µM | 17.8 µM | 2.29 µM | 11.9 µM | 25 µM | 9.79 µM | 27.9 µM | 8.94 µM | 25.6 µM | 9.07 µM | 26.8 µM | 10.4 µM | 30.3 µM | 11 µM | 26.2 µM | 26.3 µM | 10.6 µM
CCC1CN2C(=N1)c1ccccc1-c1cc(Cl)ccc12 (stereo not drawn) | 4.39 µM | 16.2 µM | 1.85 µM | 2.53 µM | 10.6 µM | 1.51 µM | 4.32 µM | 46.7 µM | 3.4 µM | 25.4 µM | 2.58 µM | 8.19 µM | 2.8 µM | 8.15 µM | 4.97 µM | 18.4 µM | 4.17 µM | 16.3 µM | 9.34 µM | 4.53 µM
COc1cccc(-n2nc(C)c3c(N/N=C(\C)c4ccncc4)ncnc32)c1 | > 25 µM | > 25 µM | > 25 µM | > 24.2 µM | > 25 µM | > 25 µM | > 25 µM | > 25 µM | 8.4 µM | > 25 µM | > 25 µM | > 25 µM | 10.3 µM | > 25 µM | > 25 µM | > 25 µM | > 25 µM | > 25 µM | > 25 µM | > 25 µM
O=CN/C=C/c1cccc(O)c1 |  | > 100 µM |  |  | 75.6 µM |  |  | > 79.7 µM |  | 99.2 µM |  | 65.4 µM |  | > 100 µM |  | > 100 µM |  | > 100 µM | > 100 µM | > 75.2 µM
Nc1nc(N)c2nc(CNc3ccc(C(=O)NC(CC(=O)O)C(=O)O)cc3)cnc2n1 (stereo not drawn) | 0.465 µM | > 100 µM | 0.756 µM | 0.0773 µM | > 100 µM | 0.267 µM | 0.481 µM | 12.4 µM | > 100 µM | > 100 µM | 3.97 µM | > 100 µM | > 100 µM | > 100 µM | > 100 µM | > 100 µM | 1.07 µM | > 100 µM | > 100 µM | > 100 µM
O=C(Nc1cccc(-n2cc(-c3ccncc3)c(-c3cc(O)cc(Cl)c3)n2)c1)Nc1ccc(Cl)c(C(F)(F)F)c1 | 1.78 µM | 3.89 µM | 2.86 µM | 1.96 µM | 4.47 µM | 2.01 µM | 2.68 µM | 7.87 µM | 1.86 µM | 5.85 µM | 1.32 µM | 4.48 µM | 2.37 µM | 6.25 µM | 2.01 µM | 6.2 µM | 3.93 µM | 13.4 µM | 6.62 µM | 5.18 µM
C=CCC1(O)c2ccccc2C(=O)c2c(NCCN(CC(=O)OCC)CC(=O)OCC)cccc21 (stereo not drawn) | > 100 µM | > 100 µM | 71.9 µM | > 100 µM | > 100 µM | 46.5 µM | > 100 µM | > 100 µM | > 100 µM | > 100 µM | > 100 µM | > 100 µM | > 100 µM | > 100 µM | > 100 µM | > 100 µM | > 100 µM | > 100 µM | > 100 µM | > 100 µM
CCOC(=O)c1cc2c(n1Cc1cccc(OC)c1)-c1oncc1CCC2 | 0.153 µM | 0.456 µM | 1.19 µM | 0.534 µM | > 100 µM | 0.301 µM | 2.12 µM | > 100 µM | 4.06 µM | > 100 µM | 0.222 µM | 0.704 µM | 0.695 µM | > 100 µM | 5.55 µM | > 100 µM | 5.58 µM | > 96.4 µM | > 58.4 µM | 26.8 µM
CCN(Cc1ccc(F)cc1)c1ccc(CO)c(F)c1 | 22.8 µM | > 72.4 µM | 12.8 µM | 2.38 µM | 13.5 µM | 15.1 µM | 3.74 µM | 36.4 µM | 18.9 µM | > 69 µM | 14.1 µM | 35.8 µM | 18.7 µM | 43.9 µM | 32 µM | > 100 µM | 18.7 µM | 54.6 µM | 37.3 µM | 45.1 µM
NC(=O)c1ccc(I)c(N=O)c1 | 29.6 µM | 89.5 µM | 29 µM | 18.6 µM | 32.8 µM | 40.6 µM | 20 µM | 45.4 µM | 35.5 µM | > 100 µM | 21.4 µM | 55.3 µM | 34 µM | > 100 µM | 46.9 µM | > 100 µM | 67.5 µM | > 100 µM | 85.5 µM | > 100 µM
COc1ccc2c(=O)cc(-c3ccncc3)oc2c1OC |  | > 100 µM |  |  | > 100 µM |  |  | > 100 µM |  | > 100 µM |  | > 100 µM |  | 96.9 µM |  | 93.1 µM |  | 48.4 µM | 50.6 µM | 39.4 µM
C[C@]12CCc3sc(NCCc4ccccc4)nc3C1=CC[C@@H]1[C@@H]2CC[C@]2(C)C(=O)CC[C@@H]12 | 3.01 µM | > 100 µM | 2.93 µM | 2.87 µM | 12.3 µM | 3.06 µM | 3.13 µM | 11.1 µM | 3.4 µM | 21.4 µM | 1.78 µM | 3.64 µM | 2.18 µM | 6.82 µM | 3.37 µM | 18.9 µM | 8.19 µM | > 100 µM | 9.1 µM | > 100 µM
COC(=O)c1ccccc1OCc1cc(=O)oc2ccc(C)cc12 |  | > 100 µM |  |  | > 100 µM |  |  | > 100 µM |  | > 100 µM |  | 48.6 µM |  | > 100 µM |  | > 100 µM |  | > 100 µM | > 100 µM | > 100 µM
